This passage reports IC50 results from US8691991B2 (priority 2004, dated 2014).

In general, IC50 refers to the concentration that gives 50% inhibition. Higher therefore signals weaker potency.

The assay concerns Pseudotyped HIV vector. The assay can be described thus: Pseudotyped HIV vector expressing luciferase reporter assay. Format: cell-based. The note with it: Human immunodeficiency virus 1. As for the experimental part: Pseudotyped HIV Vector Expressing Luciferase Reporter Assay
Expression of luciferase reporter following viral integration was performed essentially as described in Jármy, G. et al., J. Medical Virology, 64:223-231, 2001.
Background: Reporter assays use an easily measured gene product as a stand-in for the process of interest.
`COCCNC(=O)c1c(O)c2ncc(Cc3ccc(F)cc3)cc2n(Cc2ccc(S(C)(=O)=O)cc2)c1=O` [Example 64, 7-(4-Fluorobenzyl)-4-hydroxy-N-(2-methoxyethyl)-1-[4-(methylsulfonyl)benzyl]-2-oxo-1,2-dihydro-1,5-naphthyridine-3-carboxamide]: the IC50 is under 10 nM. With `O=C(NCCN1CCOCC1)c1c(O)c2ncc(Cc3ccc(F)cc3)cc2n(CC(=O)N2CCOCC2)c1=O` [Example 83, 7-[(4-Fluorophenyl)methyl]-4-hydroxy-N-[2-(4-morpholinyl)ethyl]-1-[2-(4-morpholinyl)-2-oxoethyl]-2-oxo-1,2-dihydro-1,5-naphthyridine-3-carboxamide] the figure was 10 to 25 nM.

As for `COCCNC(=O)c1c(O)c2ncc(Cc3ccc(F)cc3)cc2n(CC(=O)N2CCOCC2)c1=O` [Example 84, 7-[(4-Fluorophenyl)methyl]-4-hydroxy-N-[2-(methyloxy)ethyl]-1-[2-(4-morpholinyl)-2-oxoethyl]-2-oxo-1,2-dihydro-1,5-naphthyridine-3-carboxamide], the IC50 was under 10 nM. Regarding `CC(C)(CO)CNC(=O)c1c(O)c2ncc(Cc3ccc(F)cc3)cc2[nH]c1=O` [Example 85, 7-[(4-Fluorophenyl)methyl]-4-hydroxy-N-(3-hydroxy-2,2-dimethylpropyl)-2-oxo-1,2-dihydro-1,5-naphthyridine-3-carboxamide], the IC50 is under 10 nM. With `O=C(NCCOCCO)c1c(O)c2ncc(Cc3ccc(F)cc3)cc2[nH]c1=O` [Example 86, 7-[(4-Fluorophenyl)methyl]-4-hydroxy-N-{2-[(2-hydroxyethyl)oxy]ethyl}-2-oxo-1,2-dihydro-1,5-naphthyridine-3-carboxamide] the figure was under 10 nM; with `COCCNC(=O)c1c(O)c2ncc(Cc3ccc(F)cc3)cc2n(CC(=O)N(C)C)c1=O` [Example 89, 1-[2-(Dimethylamino)-2-oxoethyl]-7-[(4-fluorophenyl)methyl]-4-hydroxy-N-[2-(methyloxy)ethyl]-2-oxo-1,2-dihydro-1,5-naphthyridine-3-carboxamide], under 10 nM; with `CN(C)C(=O)Cn1c(=O)c(C(=O)NCCN2CCOCC2)c(O)c2ncc(Cc3ccc(F)cc3)cc21` [Example 91, 1-[2-(Dimethylamino)-2-oxoethyl]-7-[(4-fluorophenyl)methyl]-4-hydroxy-N-[2-(4-morpholinyl)ethyl]-2-oxo-1,2-dihydro-1,5-naphthyridine-3-carboxamide], 10 to 25 nM. With `O=C(NCCCN1CCOCC1)c1c(O)c2ncc(Cc3ccc(F)cc3)cc2n(CC(=O)N2CCOCC2)c1=O` [Example 93, 7-[(4-Fluorophenyl)methyl]-4-hydroxy-1-[2-(4-morpholinyl)-2-oxoethyl]-N-[3-(4-morpholinyl)propyl]-2-oxo-1,2-dihydro-1,5-naphthyridine-3-carboxamide] the figure was 10 to 25 nM. `O=C(NCCCN1CCCC1=O)c1c(O)c2ncc(Cc3ccc(F)cc3)cc2n(CC(=O)N2CCOCC2)c1=O` [Example 94, 7-[(4-Fluorophenyl)methyl]-4-hydroxy-1-[2-(4-morpholinyl)-2-oxoethyl]-2-oxo-N-[3-(2-oxo-1-pyrrolidinyl)propyl]-1,2-dihydro-1,5-naphthyridine-3-carboxamide] returned an IC50 of 10 to 25 nM. With `O=C(NCCO)c1c(O)c2ncc(Cc3ccc(F)cc3)cc2n(CC(=O)N2CCOCC2)c1=O` [Example 95, 7-[(4-Fluorophenyl)methyl]-4-hydroxy-N-(2-hydroxyethyl)-1-[2-(4-morpholinyl)-2-oxoethyl]-2-oxo-1,2-dihydro-1,5-naphthyridine-3-carboxamide] the figure was 10 to 25 nM; with `Cn1c(=O)c(C(=O)NCCN2CCOCC2)c(O)c2ncc(Cc3ccc(F)cc3)cc21` [Example 96, 7-[(4-Fluorophenyl)methyl]-4-hydroxy-1-methyl-N-[2-(4-morpholinyl)ethyl]-2-oxo-1,2-dihydro-1,5-naphthyridine-3-carboxamide], under 10 nM.
